The values below come from patent US7541367B2, “3-benzoimidazolyl-pyrazolopyridines useful in treating kinase disorders” (Janssen Pharmaceutica, N.V., priority 2005, dated 2009).

As usually defined, the IC50 is the concentration at which inhibition is half-maximal. A high value points to weaker potency in that assay.

The test system of experiment [1] is HCT-116 colon carcinoma. The experiment can be described thus: Cell Proliferation Inhibition Assay (14C-thymidine incorporation), HCT-116.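 Also: proliferation measured as methyl 14C-thymidine uptake into new DNA, counted in 96-well scintillating microplates, compared with DMSO-only control wells.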 In kind it is cell-based. In general terms: Dividing cells build labelled thymidine or BrdU into new DNA.
Experiment [2] concerns A375 malignant melanoma. Put plainly: Cell Proliferation Inhibition Assay (14C-thymidine incorporation), A375.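 Also: proliferation measured by radiolabelled thymidine uptake into new DNA, counted in scintillating 96-well plates, compound-treated wells compared with DMSO-only control wells.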 The experiment is classed as cell-based. To be noted: Homo sapiens, A-375, A375 cells.
Experiment [3] has as its target T1, Aurora-A (Mus musculus, UniProt P97477).
T1 construct: polyhistidine (N)
T1 sequence (P97477 1-395): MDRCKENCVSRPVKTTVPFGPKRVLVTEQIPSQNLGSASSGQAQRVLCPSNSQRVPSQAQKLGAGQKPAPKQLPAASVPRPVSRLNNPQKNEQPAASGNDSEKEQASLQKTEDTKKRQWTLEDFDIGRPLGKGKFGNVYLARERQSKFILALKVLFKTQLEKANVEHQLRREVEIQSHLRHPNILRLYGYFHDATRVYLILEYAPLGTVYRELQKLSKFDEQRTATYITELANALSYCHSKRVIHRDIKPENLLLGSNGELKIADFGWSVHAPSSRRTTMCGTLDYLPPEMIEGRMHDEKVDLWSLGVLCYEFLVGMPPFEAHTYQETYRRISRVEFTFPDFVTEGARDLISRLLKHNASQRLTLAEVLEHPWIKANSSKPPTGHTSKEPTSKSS
The experiment can be described thus: Aurora-A kinase screening assay (33P-ATP FlashPlate).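 Also: His-tagged mouse Aurora-A phosphorylating a biotinylated peptide captured on streptavidin plates, read as 33P uptake by scintillation counting, 1% DMSO, inhibition scaled between per-plate maximum and minimum signals.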 In kind it is biochemical. To be noted: 10 μM ATP, 1 hr at 30° C.

The test system of experiment [4] is HeLa cervical adenocarcinoma. The experiment can be described thus: Cell Proliferation Inhibition Assay (14C-thymidine incorporation), HeLa.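 Also: test compound in DMSO added to cells seeded in scintillating 96-well plates, DMSO-only wells as control, uptake of methyl 14C-thymidine into new DNA counted.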 The experiment is classed as cell-based. To be noted: Homo sapiens, HeLa cells.
The target of experiment [5] is T2, c-Src kinase (Homo sapiens, UniProt P12931).
T2 construct: purchased Upstate Biotechnology, Lake Placid, N.Y
Put plainly: c-Src Kinase Assay. In kind it is biochemical. The conditions noted are these: 5 μM ATP. The procedure:
A mixture of a 10× kinase buffer (80 mM MOPS at pH 7.0, 2 mM EDTA and 100 mM Magnesium Chloride), ATP (5 μM final from a 10 mM stock), a Cdc2 peptide […] (100 μM final from a 2.5 mM stock), γ-^33P ATP (10 μCi/μL stock) and water (for a total of 20 μL/well) was added to each well of a Streptavidin Flashplate.
Test compound in 100% DMSO (0.5 μL) was added to the appropriate wells. Diluted c-Src kinase (human) (Accession Number SWISS-PROT P12931) (Upstate Biotechnology, Lake Placid, N.Y.) (diluted in a buffer consisting of 20 mM MOPS at pH 7.0, 1 mM EDTA, β-mercaptoethanol (0.1%), Brij-35 (0.01%), glycerol (5%), and 1 mg/mL bovine serum albumin) (2.5 μL) was added to the wells to initiate the reactions. The reaction plates were incubated at 30° C. for 40 min. The reaction was terminated by the addition of a 3% phosphoric acid solution (5 μL). The reaction product (10 μL) was spotted onto a P30 filtermat and washed for 5 minutes in phosphoric acid (75 mM). The wash sequence was repeated two more times, followed with one final wash in methanol. The plates were then dried, sealed and read on the TopCount scintillation counter after adding 30 μL scintillation fluid.
(§1) A maximum and minimum signal for the assay was determined on each plate. The percent inhibition of a test compound was calculated according to the formula: […]
For a series of test concentrations, the IC50 was derived by graphing percent inhibition against the log of the concentrations tested for a given compound with results shown in Table 2
(§2) For compounds with multiple values, each value represents a separate assay result.

Experiment [6] deals with T3, Lyn kinase (Homo sapiens, UniProt P07948).
T3 construct: purchased Upstate Biotechnology, Lake Placid, N.Y
Put plainly: Lyn Kinase Assay. The experiment is classed as biochemical. The conditions noted are these: 5 μM ATP. The procedure:
Test compound in 100% DMSO (0.5 μL) was added to the appropriate wells. Diluted Lyn kinase (human) (Accession Number EMBL M16038) (Upstate Biotechnology, Lake Placid, N.Y.) (diluted in a buffer consisting of 50 mM Tris at pH 7.5, 0.1 mM EGTA, Sodium Vanadate (0.1 mM), β-mercaptoethanol (0.1%) and 1 mg/mL bovine serum albumin) (2.5 μL) was added to the wells to initiate the reactions.
The reaction plates were incubated at 30° C. for 40 min. The reaction was terminated by the addition of a 3% phosphoric acid solution (5 μL). The reaction product (10 μL) was spotted onto a P30 filtermat and washed for 5 minutes in phosphoric acid (75 mM). The wash sequence was repeated two more times, followed with one final wash in methanol. The plates were then dried, sealed and read on the TopCount scintillation counter after adding 30 μL scintillation fluid.
as §1
For a series of test concentrations, the IC50 was derived by graphing percent inhibition against the log of the concentrations tested for a given compound with results shown in Table 3
as §2

The target of experiment [7] is T4, CDK1 (Homo sapiens, UniProt P06493).
T4 construct: purchased New England Biolabs, Beverly, Mass; 6020; host or cells: insect cells
Put plainly: CDK-1 kinase screening assay (33P-ATP FlashPlate). To be noted: human CDK1 with cyclin B; 10 μM ATP; 1 hr at 30° C. In kind it is biochemical.

Experiment [8] has as its target T5, VEGF-R2 (Rattus norvegicus, UniProt O08775).
T5 construct: polyhistidine (N)
The experiment can be described thus: VEGF-R2 kinase screening assay (33P-ATP FlashPlate).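 Also: Read-out is ³³P incorporation from ³³P-γ-ATP into biotinylated peptide substrate captured on streptavidin FlashPlate, counted by scintillation, 1% DMSO final, inhibition scaled between per-plate maximum and minimum signals.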 The experiment is classed as biochemical. The conditions noted are these: rat VEGF-R2 kinase domain; 10 μM ATP; 1 hr at 30° C.

The target of experiment [9] is T6, HER2 (Homo sapiens, UniProt P04626).
T6 construct: GST (Glutathione-S-Transferase) (N); HIS6 (N); thrombin cleavage site (N); purchased Proqinase, Freiburg, Germany
Put plainly: HER2 kinase screening assay (33P-ATP FlashPlate).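 Also: Biotin-poly(GT) 4:1 peptide captured on streptavidin FlashPlate, 33P transfer from γ-ATP read by scintillation counting, lower incorporation means inhibition, 1% DMSO final, 100 µL reaction.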 In kind it is biochemical. To be noted: GST-HIS6 HER-2 aa 679 to 1255; 10 μM ATP; 1 hr at 30° C.

Experiment [10] concerns the target T7, RET (Homo sapiens, UniProt P07949).
T7 construct: polyhistidine (N)
T7 sequence (P07949 658-1114 limits assumed): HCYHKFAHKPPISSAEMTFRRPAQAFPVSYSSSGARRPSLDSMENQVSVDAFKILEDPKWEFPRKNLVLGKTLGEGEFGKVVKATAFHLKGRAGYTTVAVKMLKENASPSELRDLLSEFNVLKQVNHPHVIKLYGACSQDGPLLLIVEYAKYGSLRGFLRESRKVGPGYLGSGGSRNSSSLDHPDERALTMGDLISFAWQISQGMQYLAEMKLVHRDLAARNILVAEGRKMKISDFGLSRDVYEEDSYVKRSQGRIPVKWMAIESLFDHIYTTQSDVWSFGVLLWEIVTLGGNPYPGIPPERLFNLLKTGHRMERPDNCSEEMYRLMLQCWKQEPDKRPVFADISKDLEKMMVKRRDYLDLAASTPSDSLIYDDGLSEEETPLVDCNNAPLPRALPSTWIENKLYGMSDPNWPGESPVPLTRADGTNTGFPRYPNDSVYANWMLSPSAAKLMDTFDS
Put plainly: RET kinase screening assay (33P-ATP FlashPlate).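 Also: biotinylated peptide substrate captured on streptavidin FlashPlate, 33P phosphate transfer read by scintillation counting, 1% DMSO, lower incorporation means inhibition, percent relative to per-plate maximum and minimum signals.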 The experiment is classed as biochemical. To be noted: human RET kinase domain; 10 μM ATP; 1 hr at 30° C.

The mark [11] stands for this setting: Homo sapiens, HCT-116, HCT-116 cells.

Several values for one entry are separate records, joined by “and”; a condition that tells them apart may be missing. Identical values can stand only once.

T2 sequence (P12931 whole entry): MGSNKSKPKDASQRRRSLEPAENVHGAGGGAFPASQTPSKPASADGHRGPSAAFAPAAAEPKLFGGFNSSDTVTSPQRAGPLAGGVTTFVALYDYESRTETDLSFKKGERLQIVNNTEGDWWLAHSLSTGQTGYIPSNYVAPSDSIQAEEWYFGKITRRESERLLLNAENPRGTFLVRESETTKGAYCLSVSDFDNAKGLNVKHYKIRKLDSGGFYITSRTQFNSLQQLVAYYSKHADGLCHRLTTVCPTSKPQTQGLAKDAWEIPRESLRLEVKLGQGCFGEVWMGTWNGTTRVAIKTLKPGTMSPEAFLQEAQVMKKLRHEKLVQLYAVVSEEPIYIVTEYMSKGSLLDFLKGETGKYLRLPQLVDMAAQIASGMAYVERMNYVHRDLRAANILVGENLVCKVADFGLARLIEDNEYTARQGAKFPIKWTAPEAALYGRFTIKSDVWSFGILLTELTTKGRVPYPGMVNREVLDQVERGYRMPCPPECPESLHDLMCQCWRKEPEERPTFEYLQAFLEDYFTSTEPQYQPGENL
T3 sequence (P07948 whole entry): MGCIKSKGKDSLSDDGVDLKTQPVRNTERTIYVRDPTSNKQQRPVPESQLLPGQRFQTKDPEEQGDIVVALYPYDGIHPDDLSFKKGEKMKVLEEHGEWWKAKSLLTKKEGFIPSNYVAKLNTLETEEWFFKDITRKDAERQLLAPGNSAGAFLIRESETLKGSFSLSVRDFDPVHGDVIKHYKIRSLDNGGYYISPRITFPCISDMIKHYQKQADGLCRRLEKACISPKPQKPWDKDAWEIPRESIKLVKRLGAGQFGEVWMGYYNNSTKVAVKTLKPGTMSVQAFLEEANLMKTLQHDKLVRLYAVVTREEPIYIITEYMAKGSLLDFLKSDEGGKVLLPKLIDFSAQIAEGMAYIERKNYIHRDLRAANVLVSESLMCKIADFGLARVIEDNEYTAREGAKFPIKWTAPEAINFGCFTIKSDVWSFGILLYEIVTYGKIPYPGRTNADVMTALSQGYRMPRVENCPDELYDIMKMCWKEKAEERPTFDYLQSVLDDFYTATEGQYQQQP
T6 sequence (P04626 679-1255): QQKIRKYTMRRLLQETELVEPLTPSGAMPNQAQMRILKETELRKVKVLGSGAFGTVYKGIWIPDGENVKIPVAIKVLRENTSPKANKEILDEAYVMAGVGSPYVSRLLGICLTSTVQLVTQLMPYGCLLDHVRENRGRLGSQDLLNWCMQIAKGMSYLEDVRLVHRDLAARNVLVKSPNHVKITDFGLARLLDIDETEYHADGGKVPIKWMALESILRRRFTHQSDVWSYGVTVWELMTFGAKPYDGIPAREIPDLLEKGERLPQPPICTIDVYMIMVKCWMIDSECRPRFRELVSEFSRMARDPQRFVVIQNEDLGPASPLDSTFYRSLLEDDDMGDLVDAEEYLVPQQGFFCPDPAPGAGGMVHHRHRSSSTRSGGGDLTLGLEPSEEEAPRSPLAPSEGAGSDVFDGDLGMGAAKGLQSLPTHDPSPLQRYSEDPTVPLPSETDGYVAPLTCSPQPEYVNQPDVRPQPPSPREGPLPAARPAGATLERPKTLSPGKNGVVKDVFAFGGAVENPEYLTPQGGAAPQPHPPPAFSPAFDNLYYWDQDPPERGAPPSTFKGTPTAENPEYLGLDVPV
T5 sequence (O08775 786-1343): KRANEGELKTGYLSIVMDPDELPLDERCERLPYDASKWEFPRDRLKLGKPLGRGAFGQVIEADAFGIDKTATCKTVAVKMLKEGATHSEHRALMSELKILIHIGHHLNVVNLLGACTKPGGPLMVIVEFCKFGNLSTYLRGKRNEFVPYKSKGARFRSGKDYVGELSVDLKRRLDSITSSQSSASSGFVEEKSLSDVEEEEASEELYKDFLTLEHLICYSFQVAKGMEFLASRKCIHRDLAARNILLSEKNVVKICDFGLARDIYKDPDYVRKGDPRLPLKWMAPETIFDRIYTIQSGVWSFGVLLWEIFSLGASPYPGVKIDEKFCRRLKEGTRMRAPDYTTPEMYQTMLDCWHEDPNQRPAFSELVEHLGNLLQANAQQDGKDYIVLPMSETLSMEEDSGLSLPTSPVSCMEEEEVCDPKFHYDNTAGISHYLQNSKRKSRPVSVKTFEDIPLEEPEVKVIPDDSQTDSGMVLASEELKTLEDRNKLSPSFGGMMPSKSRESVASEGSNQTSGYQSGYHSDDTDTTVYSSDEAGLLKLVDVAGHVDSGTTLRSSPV
T4 sequence (P06493 whole entry): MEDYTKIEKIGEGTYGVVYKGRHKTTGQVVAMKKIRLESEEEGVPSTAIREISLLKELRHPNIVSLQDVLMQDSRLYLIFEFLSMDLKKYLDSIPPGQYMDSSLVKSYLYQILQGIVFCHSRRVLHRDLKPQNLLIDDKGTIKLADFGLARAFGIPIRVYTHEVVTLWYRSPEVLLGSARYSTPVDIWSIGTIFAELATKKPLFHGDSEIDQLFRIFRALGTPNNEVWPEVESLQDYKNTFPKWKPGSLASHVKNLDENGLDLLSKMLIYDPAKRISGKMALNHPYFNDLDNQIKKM
T4 sequence (P14635 whole entry partner): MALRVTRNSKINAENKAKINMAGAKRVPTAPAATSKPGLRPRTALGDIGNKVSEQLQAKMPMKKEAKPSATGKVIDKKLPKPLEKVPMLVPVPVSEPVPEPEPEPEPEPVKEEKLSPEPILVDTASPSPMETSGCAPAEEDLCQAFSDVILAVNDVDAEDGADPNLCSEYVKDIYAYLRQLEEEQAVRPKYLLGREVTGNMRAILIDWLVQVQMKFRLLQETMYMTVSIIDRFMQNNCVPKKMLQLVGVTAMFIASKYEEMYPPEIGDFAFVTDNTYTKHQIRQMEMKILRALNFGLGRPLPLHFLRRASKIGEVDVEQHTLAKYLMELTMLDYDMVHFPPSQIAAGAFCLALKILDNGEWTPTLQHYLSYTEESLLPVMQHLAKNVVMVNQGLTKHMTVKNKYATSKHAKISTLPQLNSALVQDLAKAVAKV

As to `COc1ccc2nc(-c3n[nH]c4ncc(-c5cccnc5)cc34)[nH]c2c1` [Cpd 90, 3-(6-methoxy-1H-benzoimidazol-2-yl)-5-pyridin-3-yl-1H-pyrazolo[3,4-b]pyridine], the concentration for half-maximal inhibition (IC50) was 299 nM in experiment [1] (setting [11]); 371 nM in experiment [2]; 279 nM in experiment [3]; 418 nM in experiment [4] (HeLa); 56.7 nM in experiment [5]; 69.4 nM in [6]. The figures for the IC50 in experiment [7] and in experiment [8] were 2.74 nM and 316 nM, respectively.

Consider `CNCc1cncc(-c2cnc3[nH]nc(-c4nc5ccc(OC)cc5[nH]4)c3c2)c1` [Cpd 97, {5-[3-(6-methoxy-1H-benzoimidazol-2-yl)-1H-pyrazolo[3,4-b]pyridin-5-yl]-pyridin-3-ylmethyl}-methyl-amine], for which the IC50 in experiment [1] (Homo sapiens, HCT-116 cells) was determined as 61.5 nM; in experiment [2], 164 nM; in [4] it was 61.4 nM; in experiment [5], 16.4 nM; in experiment [6] it was 4.29 nM; in experiment [7], 0.9 nM. Moreover, in experiment [9], the concentration for half-maximal inhibition (IC50) was 1450 nM.

Turning to `CC(C)NCc1cncc(-c2cnc3[nH]nc(-c4nc5cc(N6CCN(C)CC6)ccc5[nH]4)c3c2)c1` [Cpd 83, isopropyl-(5-{3-[5-(4-methyl-piperazin-1-yl)-1H-benzoimidazol-2-yl]-1H-pyrazolo[3,4-b]pyridin-5-yl}-pyridin-3-ylmethyl)-amine], the half-inhibitory concentration (IC50) in experiment [1] (setting [11]) turned out to be 1500 nM; in [2] it was 1060 nM; in experiment [3], 263 nM; in [4] (HeLa), 1450 nM; in experiment [5], 6.63 nM; in experiment [6], 2.43 nM. In addition, the half-maximal inhibitory concentration (IC50) in experiment [7] was found to be 7.67 nM; in experiment [9] it was 1490 nM; in experiment [8] it was 73.4 nM.

Regarding `COCc1cccc2[nH]c(-c3n[nH]c4ncc(-c5cncc(CN6CCOCC6)c5)cc34)nc12` [Cpd 54, 3-(4-methoxymethyl-1H-benzoimidazol-2-yl)-5-(5-morpholin-4-ylmethyl-pyridin-3-yl)-1H-pyrazolo[3,4-b]pyridine], the half-maximal inhibitory concentration (IC50) in [1] (HCT-116 cells) is 63.5 nM; in experiment [1] (setting [11]), 33.6 nM; in experiment [3], 3260 nM and 4640 nM; in experiment [5], 143 nM; in experiment [6], 578 nM; in [7] it was 177 nM and 343 nM. Also, the IC50 in experiment [9] is greater than 100000 nM; in [8] it was 1880 nM and 1570 nM.

With `Fc1ccc2nc(-c3n[nH]c4ncc(-c5cccnc5)cc34)[nH]c2c1` [Cpd 92, 3-(6-fluoro-1H-benzoimidazol-2-yl)-5-pyridin-3-yl-1H-pyrazolo[3,4-b]pyridine], the IC50 was 348 nM in experiment [1] (setting [11]); 467 nM in experiment [2]; 698 nM in [4] (HeLa); 97.9 nM in experiment [5]; greater than 100000 nM in experiment [6]; 6.57 nM in [7].

For `COCc1cccc2[nH]c(-c3n[nH]c4ncc(-c5cncc(CN)c5)cc34)nc12` [Cpd 73, C-{5-[3-(4-methoxymethyl-1H-benzoimidazol-2-yl)-1H-pyrazolo[3,4-b]pyridin-5-yl]-pyridin-3-yl}-methylamine], the 50% inhibitory concentration (IC50) in experiment [1] (setting [11]) was 412 nM; in [2], 678 nM; in experiment [3], 4750 nM; in experiment [4] (HeLa), 2550 nM; in [5], 823 nM; in [10] it was greater than 10000 nM. Further, the IC50 is 42.7 nM in [7], greater than 10000 nM in experiment [9] and greater than 10000 nM in [8].

As to `COCc1cccc2[nH]c(-c3n[nH]c4ncc(-c5cncc(CNCCO)c5)cc34)nc12` [Cpd 77, 2-({5-[3-(4-methoxymethyl-1H-benzoimidazol-2-yl)-1H-pyrazolo[3,4-b]pyridin-5-yl]-pyridin-3-ylmethyl}-amino)-ethanol], the IC50 in [1] (setting [11]) was 643 nM; in [2] it was 1610 nM; in experiment [3] it was 3180 nM; in experiment [4] (HeLa) it was 1620 nM; in [5], 183 nM; in experiment [10], greater than 10000 nM. The IC50 in experiment [7] is 13 nM; in experiment [9], greater than 10000 nM; in experiment [8], 349 nM.

For `COCc1cccc2[nH]c(-c3n[nH]c4ncc(-c5cncc(C=O)c5)cc34)nc12` [Cpd 41, 5-[3-(4-methoxymethyl-1H-benzoimidazol-2-yl)-1H-pyrazolo[3,4-b]pyridin-5-yl]-pyridine-3-carbaldehyde], the IC50 in experiment [1] (setting [11]) was 161 nM; in [2], 265 nM; in [3] it was 248 nM; in [4] (HeLa) it was 1220 nM; in experiment [5], 92.5 nM; in experiment [10], greater than 100000 nM. Moreover, the results for the IC50 in experiment [7], in experiment [9] and in experiment [8] were 231 nM, roughly 100000 nM and greater than 1000 nM, respectively.

In the case of `CN1CCN(c2ccc3[nH]c(-c4n[nH]c5ncc(-c6cncc7ccccc67)cc45)nc3c2)CC1` [Cpd 31, 4-{3-[5-(4-methyl-piperazin-1-yl)-1H-benzoimidazol-2-yl]-1H-pyrazolo[3,4-b]pyridin-5-yl}-isoquinoline], the concentration for half-maximal inhibition (IC50) in [1] (Homo sapiens, HCT-116 cells) turned out to be 355 nM; in [2], 165 nM; in experiment [4], 455 nM; in experiment [5] it was 4.21 nM; in experiment [6], 3.87 nM; in experiment [7] it was 13.6 nM. Also, half-maximal inhibition in experiment [9] (IC50) required 6510 nM.

Consider `CCNCc1cncc(-c2cnc3[nH]nc(-c4nc5c(COC)cccc5[nH]4)c3c2)c1` [Cpd 42, ethyl-{5-[3-(4-methoxymethyl-1H-benzoimidazol-2-yl)-1H-pyrazolo[3,4-b]pyridin-5-yl]-pyridin-3-ylmethyl}-amine], for which the concentration for half-maximal inhibition (IC50) in [1] (setting [11]) is 280 nM; in experiment [2], 239 nM; in [3] it was 4460 nM; in experiment [4] (HeLa) it was 298 nM; in [5], 358 nM; in [10], 7630 nM. Moreover, the figures for the IC50 in experiment [7], in experiment [9] and in experiment [8] were 9.8 nM, greater than 10000 nM and roughly 1000 nM, respectively.
